Data taken from the ASAP Discovery antiviral challenge data (2025).
In brackets after ≈: the same amount, converted by molar mass. Several values for one entry are separate records, joined by “and”; a condition that tells them apart may be missing. Equal entries are not always repeated.

Assays:
[1] = human; liver_microsomes
[2] = mouse; liver_microsomes
[3] = mdck_mdr1
[4] = not given; remark: listed apart in the source

Row | SMILES | microsomal CLint [1] | microsomal CLint [2] | logD | Papp [3] | solubility kinetic [4]
1 | CC(C)[C@H](Nc1ncnc2[nH]c(-c3cnn(C)c3C#N)cc12)c1ccc2c(c1)S(=O)(=O)CCC2 (racemic) | 490 µL/min/mg | 440 µL/min/mg | 3.6 | 1.97 ×10⁻⁶ cm/s | 34 µM (≈ 16.2 µg/mL)
2 | COc1ccc(C(=O)Nc2cccc(/C=C3/C(=O)NC(=O)c4ccccc43)c2)cc1 | 180 µL/min/mg | 127 µL/min/mg | 3.6 | 2.33 ×10⁻⁶ cm/s | 23 µM (≈ 9.16 µg/mL)
3 | CCNC(=O)c1cc2c(N[C@H](c3ccc4c(c3)S(=O)(=O)CCO4)C(C)C)ncnc2[nH]1 (racemic) | 64 µL/min/mg | 26 µL/min/mg | 2.9 | 0.471 ×10⁻⁶ cm/s | 328 µM (≈ 145 µg/mL)
4 | O=C(/C=C/c1ccccc1)C(=O)N1CCN(CCc2ccccc2)CC1 | 167 µL/min/mg | 181 µL/min/mg | 3.3 | 3 ×10⁻⁶ cm/s | 239 µM (≈ 83.3 µg/mL)
5 | CC(C)[C@H](Nc1ncnc2[nH]cc(C(=O)NC3CC3)c12)c1ccc2c(c1)S(=O)(=O)CCC2 (racemic) | 29 µL/min/mg | 234 µL/min/mg | 3.1 | 2.46 ×10⁻⁶ cm/s | 257 µM (≈ 117 µg/mL)
6 | CNC(=O)c1cc2c(N[C@H](c3ccc4c(c3)NC(=O)CO4)C(C)C)ncnc2[nH]1 (single isomer, unassigned) | 175 µL/min/mg | 33 µL/min/mg | 2.9 | 1.21 ×10⁻⁶ cm/s | 380 µM (≈ 150 µg/mL)
7 | CC(C)[C@H](Nc1ncnc2[nH]c(-c3cnn(C)c3)cc12)c1ccc2c(c1)S(=O)(=O)NCC2 (racemic) | 120 µL/min/mg | 87 µL/min/mg | 3.2 | 1.58 ×10⁻⁶ cm/s | 105 µM (≈ 47.4 µg/mL)
8 | O=C(Nc1cc2c(cc1Br)CNC2)c1cc(F)cc2[nH]ncc12 | 11.4 µL/min/mg | 299 µL/min/mg | 1.1 | 7.65 ×10⁻⁶ cm/s | 47 µM (≈ 17.6 µg/mL)
9 | CC(C)[C@H](Nc1ncnc2[nH]c(-c3ccc4cncn4c3)cc12)c1ccc2c(c1)S(=O)(=O)CCC2 (racemic) | 210 µL/min/mg | 170 µL/min/mg | 4 | 0.56 ×10⁻⁶ cm/s | 14 µM (≈ 6.81 µg/mL)
10 | COCCNC(=O)[C@H](Nc1ccc2c(c1)CNC2)c1cc(Cl)cc(C2CC2)c1 (single isomer, unassigned) | 19.7 µL/min/mg | 11.7 µL/min/mg | 1 | 1.4 ×10⁻⁶ cm/s | 320 µM (≈ 128 µg/mL)
11 | CC(C)[C@H](Nc1ncnc2[nH]c(-c3ccc4nnn(C)c4c3)cc12)c1ccc2c(c1)S(=O)(=O)CCC2 (racemic) | 752 µL/min/mg | 219 µL/min/mg | 3.4 | 0.827 ×10⁻⁶ cm/s | 6 µM (≈ 3.01 µg/mL)
12 | Cn1ncc(-c2cc3c(N[C@H](c4ccc5c(n4)OCCO5)C(C)(C)C)ncnc3[nH]2)c1C#N (single isomer, unassigned) | 283 µL/min/mg | 226 µL/min/mg | 3.3 | 14 ×10⁻⁶ cm/s | 24 µM (≈ 10.7 µg/mL)
13 | CNC(=O)c1c[nH]c2ncnc(N[C@H](c3ccc4c(c3)OCCO4)C(C)C)c12 (racemic) | 79 µL/min/mg | 88 µL/min/mg | 3.6 | 16.2 ×10⁻⁶ cm/s | 319 µM (≈ 122 µg/mL)
14 | COc1ccc2c(c1)CCN(c1ncnc3[nH]ccc13)[C@H]2C(C)C (racemic) | 60 µL/min/mg | 321 µL/min/mg | 4.33 | 7 ×10⁻⁶ cm/s | 14 µM (≈ 4.51 µg/mL)
15 | CC(C)[C@H](Nc1ncnc2[nH]c(-c3cnn(CC(N)=O)c3)cc12)c1ccc2c(c1)S(=O)(=O)CCC2 (single isomer, unassigned) | 240 µL/min/mg and 115 µL/min/mg | 39 µL/min/mg and 96 µL/min/mg | 2.1 and 2 | 1.98 ×10⁻⁶ cm/s and 0.719 ×10⁻⁶ cm/s | 338 µM and 335 µM
16 | NCc1cccc(NC(=O)[C@@H](NC(=O)OCc2ccccc2)c2ccc(OCc3ccccc3)cc2)c1 | 11 µL/min/mg | 1 µL/min/mg | 3.2 | 1.53 ×10⁻⁶ cm/s | 23 µM (≈ 11.4 µg/mL)
